Assay [1] concerns the target T1, SMYD3 (Homo sapiens (Human), UniProt Q9H7B4). The assay is described as follows: SMYD3 biochemical assay (SPA, 3H-SAM methylation of MEKK2 protein substrate). Particulars: Table 2A; read-out: SMYD3 Biochem IC50. In a few lines: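 SPA methyltransferase format: tag-cleaved human SMYD3, insect-cell GST-MEKK2 protein substrate, 3H-SAM donor, 30 min RT enzyme–compound preincubation, 100 uM cold SAM quench.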

The target of assay [2] is T1, SMYD3. Kind of assay: SMYD3 cell assay (Trimethyl-MEKK2 In-Cell Western in 293T/17 cells). The class given is cell-based. The note with it: Table 2A; read-out: SMYD3 Cell IC50. In a few lines: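 In-Cell Western readout: methanol-fixed cells stained for trimethyl-MEKK2 and flag tag, ratio per well normalized to DMSO and background controls.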

T1 sequence (Q9H7B4 whole entry): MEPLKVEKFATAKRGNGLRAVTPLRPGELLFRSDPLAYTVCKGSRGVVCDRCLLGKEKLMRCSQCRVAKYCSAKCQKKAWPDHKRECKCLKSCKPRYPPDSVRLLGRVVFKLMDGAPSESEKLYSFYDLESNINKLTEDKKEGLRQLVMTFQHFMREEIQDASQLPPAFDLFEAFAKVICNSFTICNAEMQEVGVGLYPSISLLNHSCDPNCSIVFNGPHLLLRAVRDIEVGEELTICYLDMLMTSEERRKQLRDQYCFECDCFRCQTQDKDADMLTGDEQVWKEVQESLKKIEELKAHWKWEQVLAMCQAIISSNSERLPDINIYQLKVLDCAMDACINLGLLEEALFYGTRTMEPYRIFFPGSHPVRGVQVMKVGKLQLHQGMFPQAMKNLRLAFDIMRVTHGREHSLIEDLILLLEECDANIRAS

For orientation: IC50 means the concentration that gives 50% inhibition. Turning to `C[C@H]1C[C@@H](NC(=O)c2cc(C3CC3)on2)CCN1S(=O)(=O)CCCNCc1ccc2ccccc2c1` [compound 578, 5-cyclopropyl-N-((2S,4S)-2-methyl-1-((3-((naphthalen-2-ylmethyl)amino)propyl)sulfonyl)piperidin-4-yl)isoxazole-3-carboxamide], the half-maximal inhibitory concentration (IC50) at SMYD3 [1] was 9.4 nM; at SMYD3 [2], 289 nM.

With `C[C@@H]1C[C@H](NC(=O)c2cc(C3CC3)on2)CCN1S(=O)(=O)CC1CCN(CCN2CCCCC2)CC1` [compound 579, 5-cyclopropyl-N-((2R,4R)-2-methyl-1-(((1-(2-(piperidin-1-yl)ethyl)piperidin-4-yl)methyl)sulfonyl)piperidin-4-yl)isoxazole-3-carboxamide], the figures for the concentration for half-maximal inhibition (IC50) on SMYD3 [1] and on SMYD3 [2] were 9.5 nM and 587 nM, respectively.

Turning to `O=C(N[C@H]1C[C@H]2CC[C@@H](C1)N2S(=O)(=O)N1CC2(CNC2)C1)c1cc(C2CC2)on1` [compound 580, N-((1R,3r,5S)-8-((2,6-diazaspiro[3.3]heptan-2-yl)sulfonyl)-8-azabicyclo[3.2.1]octan-3-yl)-5-cyclopropylisoxazole-3-carboxamide], the IC50 on SMYD3 [1] was found to be 9.7 nM; at SMYD3 [2], 88.9 nM.

Regarding `CC(C)NC1CCN(S(=O)(=O)N2CC[C@H](NC(=O)c3cc(C4CC4)on3)C[C@@H]2C)CC1` [compound 581, 5-cyclopropyl-N-((2S,4S)-1-((4-(isopropylamino)piperidin-1-yl)sulfonyl)-2-methylpiperidin-4-yl)isoxazole-3-carboxamide], the concentration for half-maximal inhibition (IC50) at SMYD3 [1] amounted to 10.1 nM; at SMYD3 [2], 143 nM.

For `CN1C2CC1CN(S(=O)(=O)N1[C@@H]3CC[C@H]1C[C@@H](NC(=O)c1cc(C4CC4)on1)C3)C2` [compound 582, 5-cyclopropyl-N-((1R,3r,5S)-8-((6-methyl-3,6-diazabicyclo[3.1.1]heptan-3-yl)sulfonyl)-8-azabicyclo[3.2.1]octan-3-yl)isoxazole-3-carboxamide], the IC50 on SMYD3 [1] came out at 10.1 nM; at SMYD3 [2], 151 nM.

On to `COCCN1CCC(CS(=O)(=O)N2CC[C@@H](NC(=O)c3cc(C4CC4)on3)C[C@H]2C)CC1` [compound 583, 5-cyclopropyl-N-((2R,4R)-1-(((1-(2-methoxyethyl)piperidin-4-yl)methyl)sulfonyl)-2-methylpiperidin-4-yl)isoxazole-3-carboxamide], for which the IC50 at SMYD3 [1] amounted to 10.4 nM; at SMYD3 [2], 234 nM.

As for `CC[C@H]1CN(S(=O)(=O)N2CC[C@H](NC(=O)c3cc(C4CC4)on3)C[C@@H]2C)CCN1` [compound 584, 5-cyclopropyl-N-((2S,4S)-1-(((S)-3-ethylpiperazin-1-yl)sulfonyl)-2-methylpiperidin-4-yl)isoxazole-3-carboxamide], the IC50 on SMYD3 [1] stood at 10.5 nM; at SMYD3 [2] it was 159 nM.

Turning to `C[C@H]1C[C@@H](NC(=O)c2cc(C3CC3)on2)CCN1S(=O)(=O)N1CCCNCC1` [compound 585, N-((2S,4S)-1-((1,4-diazepan-1-yl)sulfonyl)-2-methylpiperidin-4-yl)-5-cyclopropylisoxazole-3-carboxamide], the IC50 worked out at 10.6 nM on SMYD3 [1] and 186 nM on SMYD3 [2].

On to `CN(CCN)CCCS(=O)(=O)N1[C@@H]2CC[C@H]1C[C@@H](NC(=O)c1cc(C3CC3)on1)C2` [compound 586, N-((1R,3r,5S)-8-((3-((2-aminoethyl)(methyl)amino)propyl)sulfonyl)-8-azabicyclo[3.2.1]octan-3-yl)-5-cyclopropylisoxazole-3-carboxamide], for which the half-inhibitory concentration (IC50) amounted to 10.7 nM at SMYD3 [1] and 263 nM at SMYD3 [2].

Turning to `C[C@H]1C[C@@H](NC(=O)c2cc(C3CC3)on2)CCN1S(=O)(=O)CC1CCN(CCN2CCOCC2)CC1` [compound 587, 5-cyclopropyl-N-((2S,4S)-2-methyl-1-(((1-(2-morpholinoethyl)piperidin-4-yl)methyl)sulfonyl)piperidin-4-yl)isoxazole-3-carboxamide], the half-inhibitory concentration (IC50) was 10.7 nM at SMYD3 [1] and 311 nM on SMYD3 [2].

Turning to `C[C@H]1C[C@@H](NC(=O)c2cc(C3CC3)on2)CCN1S(=O)(=O)N1CC2CC(C1)N2` [compound 588, N-((2S,4S)-1-((3,6-diazabicyclo[3.1.1]heptan-3-yl)sulfonyl)-2-methylpiperidin-4-yl)-5-cyclopropylisoxazole-3-carboxamide], the half-maximal inhibitory concentration (IC50) stood at 10.8 nM at SMYD3 [1] and 151 nM at SMYD3 [2].

`C[C@@H]1C[C@H](NC(=O)c2cc(C3CC3)on2)CCN1S(=O)(=O)CC1CCN(CCO)CC1` [compound 589, 5-cyclopropyl-N-((2R,4R)-1-(((1-(2-hydroxyethyl)piperidin-4-yl)methyl)sulfonyl)-2-methylpiperidin-4-yl)isoxazole-3-carboxamide]: the 50% inhibitory concentration (IC50) at SMYD3 [1] came out at 10.9 nM; at SMYD3 [2], 152 nM.

Consider `CN(C)CCNCCCS(=O)(=O)N1[C@@H]2CC[C@H]1C[C@@H](NC(=O)c1cc(C3CC3)on1)C2` [compound 590, 5-cyclopropyl-N-((1R,3r,5S)-8-((3-((2-(dimethylamino)ethyl)amino)propyl)sulfonyl)-8-azabicyclo[3.2.1]octan-3-yl)isoxazole-3-carboxamide], for which the half-maximal inhibitory concentration (IC50) came out at 10.9 nM at SMYD3 [1] and 175 nM at SMYD3 [2].

Consider `CNCCCS(=O)(=O)N1[C@@H]2CC[C@H]1C[C@@H](NC(=O)c1cc(C3CC3)on1)C2` [compound 591, 5-cyclopropyl-N-((1R,3r,5S)-8-((3-(methylamino)propyl)sulfonyl)-8-azabicyclo[3.2.1]octan-3-yl)isoxazole-3-carboxamide], for which the IC50 on SMYD3 [1] worked out at 11.1 nM; at SMYD3 [2], 150 nM.

Regarding `C[C@H]1C[C@@H](NC(=O)c2cc(C3CC3)on2)CCN1S(=O)(=O)N1C[C@@H]2C[C@H]1CN2C` [compound 592, 5-cyclopropyl-N-((2S,4S)-2-methyl-1-(((1S,4S)-5-methyl-2,5-diazabicyclo[2.2.1]heptan-2-yl)sulfonyl)piperidin-4-yl)isoxazole-3-carboxamide], the half-maximal inhibitory concentration (IC50) at SMYD3 [1] was found to be 11.6 nM; at SMYD3 [2], 106 nM.

In the case of `CN(C)CCCS(=O)(=O)N1[C@@H]2CC[C@H]1C[C@@H](NC(=O)c1cc(C3CC3)on1)C2` [compound 593, 5-cyclopropyl-N-((1R,3r,5S)-8-((3-(dimethylamino)propyl)sulfonyl)-8-azabicyclo[3.2.1]octan-3-yl)isoxazole-3-carboxamide], the values for the IC50 on SMYD3 [1] and on SMYD3 [2] were 11.8 nM and 147 nM, respectively.

With `O=C(N[C@H]1C[C@H]2CC[C@@H](C1)N2S(=O)(=O)NC1CC2(CNC2)C1)c1cc(C2CC2)on1` [compound 594, N-((1R,3r,5S)-8-(N-(2-azaspiro[3.3]heptan-6-yl)sulfamoyl)-8-azabicyclo[3.2.1]octan-3-yl)-5-cyclopropylisoxazole-3-carboxamide], the IC50 on SMYD3 [1] stood at 12 nM; at SMYD3 [2] it was 669 nM.

For `C[C@@H]1CN(S(=O)(=O)N2CCNCC2)[C@H](C)C[C@@H]1NC(=O)c1cc(C2CC2)on1` [compound 595, 5-cyclopropyl-N-((2R,4S,5R)-2,5-dimethyl-1-(piperazin-1-ylsulfonyl)piperidin-4-yl)isoxazole-3-carboxamide], the IC50 on SMYD3 [1] was determined as 12.6 nM; on SMYD3 [2] it was 77.8 nM.

Turning to `NCCNCCS(=O)(=O)N1[C@@H]2CC[C@H]1C[C@@H](NC(=O)c1cc(C3CC3)on1)C2` [compound 596, N-((1R,3r,5S)-8-((2-((2-aminoethyl)amino)ethyl)sulfonyl)-8-azabicyclo[3.2.1]octan-3-yl)-5-cyclopropylisoxazole-3-carboxamide], the figures for the IC50 at SMYD3 [1] and at SMYD3 [2] were 12.8 nM and 379 nM, respectively.

Consider `O=C(N[C@H]1C[C@H]2CC[C@@H](C1)N2S(=O)(=O)CCCN1CCCC1)c1cc(C2CC2)on1` [compound 597, 5-cyclopropyl-N-((1R,3r,5S)-8-((3-(pyrrolidin-1-yl)propyl)sulfonyl)-8-azabicyclo[3.2.1]octan-3-yl)isoxazole-3-carboxamide], for which the half-maximal inhibitory concentration (IC50) stood at 12.9 nM on SMYD3 [1] and 217 nM on SMYD3 [2].

In the case of `CN(CCN)CCS(=O)(=O)N1[C@@H]2CC[C@H]1C[C@@H](NC(=O)c1cc(C3CC3)on1)C2` [compound 598, N-((1R,3r,5S)-8-((2-((2-aminoethyl)(methyl)amino)ethyl)sulfonyl)-8-azabicyclo[3.2.1]octan-3-yl)-5-cyclopropylisoxazole-3-carboxamide], the 50% inhibitory concentration (IC50) was found to be 13.1 nM at SMYD3 [1] and 431 nM on SMYD3 [2].

Regarding `CN(C)CCNCCS(=O)(=O)N1[C@@H]2CC[C@H]1C[C@@H](NC(=O)c1cc(C3CC3)on1)C2` [compound 599, 5-cyclopropyl-N-((1R,3r,5S)-8-((2-((2-(dimethylamino)ethyl)amino)ethyl)sulfonyl)-8-azabicyclo[3.2.1]octan-3-yl)isoxazole-3-carboxamide], the half-maximal inhibitory concentration (IC50) at SMYD3 [1] was 13.5 nM; on SMYD3 [2], 213 nM.

Take `CC1(C)CN(S(=O)(=O)N2[C@@H]3CC[C@H]2C[C@@H](NC(=O)c2cc(C4CC4)on2)C3)CCN1` [compound 600, 5-cyclopropyl-N-((1R,3r,5S)-8-((3,3-dimethylpiperazin-1-yl)sulfonyl)-8-azabicyclo[3.2.1]octan-3-yl)isoxazole-3-carboxamide]: the concentration for half-maximal inhibition (IC50) came to 13.5 nM at SMYD3 [1] and 118 nM on SMYD3 [2].

As for `C[C@H]1CN(S(=O)(=O)CCCN)[C@@H](C)C[C@H]1NC(=O)c1cc(C2CC2)on1` [compound 601, N-((2S,4R,5S)-1-((3-aminopropyl)sulfonyl)-2,5-dimethylpiperidin-4-yl)-5-cyclopropylisoxazole-3-carboxamide], the values for the 50% inhibitory concentration (IC50) at SMYD3 [1] and at SMYD3 [2] were 14.3 nM and 333 nM, respectively.

For the molecule `O=C(N[C@H]1C[C@H]2CC[C@@H](C1)N2S(=O)(=O)N1C2CCC1CNC2)c1cc(C2CC2)on1` [compound 602, N-((1R,3r,5S)-8-((3,8-diazabicyclo[3.2.1]octan-8-yl)sulfonyl)-8-azabicyclo[3.2.1]octan-3-yl)-5-cyclopropylisoxazole-3-carboxamide], the IC50 is 14.5 nM at SMYD3 [1] and 132 nM at SMYD3 [2].

(Values after patent US10577363B2, “Substituted piperidine compounds” (EPIZYME, INC., priority 2014, dated 2020).)
